Measurements reported in the NIST ThermoML archive (doi:10.1016/j.jct.2019.105891).
± gives the expanded uncertainty stated by the source.

Tests used:
[1] = refractive index (Na D-line) (dimensionless); xn = mol fraction of the nth substance listed; conditions: 100 kPa, Liquid, Standard Abbe refractometry
[2] = xn = mol fraction of the nth substance listed; conditions: 100 kPa, Liquid, Falling or rolling sphere viscometry

Nc1ccccc1 [aniline] + CCn1cc[n+](C)c1.F[B-](F)(F)F
refractive index ([1]; 293.15 K, x2 = 0): 1.58481 ± 0.001 | refractive index ([1]; 293.15 K, x2 = 0.1008): 1.56571 ± 0.0024 | refractive index ([1]; 293.15 K, x2 = 0.2035): 1.54192 ± 0.0024 | refractive index ([1]; 293.15 K, x2 = 0.3059): 1.52125 ± 0.0023 | refractive index ([1]; 293.15 K, x2 = 0.4053): 1.50001 ± 0.0023 | refractive index ([1]; 293.15 K, x2 = 0.5073): 1.47963 ± 0.0022 | refractive index ([1]; 293.15 K, x2 = 0.6013): 1.46255 ± 0.0019 | refractive index ([1]; 293.15 K, x2 = 0.7046): 1.44852 ± 0.0017 | refractive index ([1]; 293.15 K, x2 = 0.8067): 1.43589 ± 0.0016 | refractive index ([1]; 293.15 K, x2 = 0.9059): 1.42458 ± 0.0015 | refractive index ([1]; 303.15 K, x2 = 0): 1.58152 ± 0.001 | refractive index ([1]; 303.15 K, x2 = 0.1008): 1.56202 ± 0.0024 | refractive index ([1]; 303.15 K, x2 = 0.2035): 1.53814 ± 0.0024 | refractive index ([1]; 303.15 K, x2 = 0.3059): 1.51691 ± 0.0023 | refractive index ([1]; 303.15 K, x2 = 0.4053): 1.49592 ± 0.0023 | refractive index ([1]; 303.15 K, x2 = 0.5073): 1.47616 ± 0.0022 | refractive index ([1]; 303.15 K, x2 = 0.6013): 1.45885 ± 0.0019 | refractive index ([1]; 303.15 K, x2 = 0.7046): 1.44449 ± 0.0017 | refractive index ([1]; 303.15 K, x2 = 0.8067): 1.43188 ± 0.0016 | refractive index ([1]; 303.15 K, x2 = 0.9059): 1.42066 ± 0.0015 | refractive index ([1]; 313.15 K, x2 = 0): 1.57823 ± 0.001 | refractive index ([1]; 313.15 K, x2 = 0.1008): 1.55833 ± 0.0024 | refractive index ([1]; 313.15 K, x2 = 0.2035): 1.53436 ± 0.0024 | refractive index ([1]; 313.15 K, x2 = 0.3059): 1.51285 ± 0.0024 | refractive index ([1]; 313.15 K, x2 = 0.4053): 1.49183 ± 0.0022 | refractive index ([1]; 313.15 K, x2 = 0.5073): 1.47269 ± 0.0022 | refractive index ([1]; 313.15 K, x2 = 0.6013): 1.45515 ± 0.0019 | refractive index ([1]; 313.15 K, x2 = 0.7046): 1.44126 ± 0.0017 | refractive index ([1]; 313.15 K, x2 = 0.8067): 1.42857 ± 0.0016 | refractive index ([1]; 313.15 K, x2 = 0.9059): 1.41748 ± 0.0015 | refractive index ([1]; 323.15 K, x2 = 0): 1.57494 ± 0.001 | refractive index ([1]; 323.15 K, x2 = 0.1008): 1.55464 ± 0.0024 | refractive index ([1]; 323.15 K, x2 = 0.2035): 1.53058 ± 0.0025 | refractive index ([1]; 323.15 K, x2 = 0.3059): 1.5078 ± 0.0024 | refractive index ([1]; 323.15 K, x2 = 0.4053): 1.48774 ± 0.0022 | refractive index ([1]; 323.15 K, x2 = 0.5073): 1.46922 ± 0.0021 | refractive index ([1]; 323.15 K, x2 = 0.6013): 1.45245 ± 0.0019 | refractive index ([1]; 323.15 K, x2 = 0.7046): 1.43823 ± 0.0017 | refractive index ([1]; 323.15 K, x2 = 0.8067): 1.42556 ± 0.0016 | refractive index ([1]; 323.15 K, x2 = 0.9059): 1.41454 ± 0.0015 | viscosity ([2]; 293.15 K, x2 = 0): 4.38 ± 0.26 mPa·s | viscosity ([2]; 293.15 K, x2 = 0.1008): 6.84 ± 0.48 mPa·s | viscosity ([2]; 293.15 K, x2 = 0.2035): 9.46 ± 0.64 mPa·s | viscosity ([2]; 293.15 K, x2 = 0.3059): 12.58 ± 0.83 mPa·s | viscosity ([2]; 293.15 K, x2 = 0.4053): 15.93 ± 1 mPa·s | viscosity ([2]; 293.15 K, x2 = 0.5073): 20.31 ± 1.3 mPa·s | viscosity ([2]; 293.15 K, x2 = 0.6013): 24.51 ± 1.6 mPa·s | viscosity ([2]; 293.15 K, x2 = 0.7046): 28.93 ± 1.8 mPa·s | viscosity ([2]; 293.15 K, x2 = 0.8067): 33.76 ± 2.1 mPa·s | viscosity ([2]; 293.15 K, x2 = 0.9059): 39.55 ± 2.5 mPa·s | viscosity ([2]; 303.15 K, x2 = 0): 3.24 ± 0.2 mPa·s | viscosity ([2]; 303.15 K, x2 = 0.1008): 4.88 ± 0.35 mPa·s | viscosity ([2]; 303.15 K, x2 = 0.2035): 6.99 ± 0.47 mPa·s | viscosity ([2]; 303.15 K, x2 = 0.3059): 8.93 ± 0.58 mPa·s | viscosity ([2]; 303.15 K, x2 = 0.4053): 11.33 ± 0.73 mPa·s | viscosity ([2]; 303.15 K, x2 = 0.5073): 14.07 ± 0.9 mPa·s | viscosity ([2]; 303.15 K, x2 = 0.6013): 17.1 ± 1.1 mPa·s | viscosity ([2]; 303.15 K, x2 = 0.7046): 20.39 ± 1.3 mPa·s | viscosity ([2]; 303.15 K, x2 = 0.8067): 23.93 ± 1.5 mPa·s | viscosity ([2]; 303.15 K, x2 = 0.9059): 27.15 ± 1.7 mPa·s | viscosity ([2]; 313.15 K, x2 = 0): 2.47 ± 0.15 mPa·s | viscosity ([2]; 313.15 K, x2 = 0.1008): 3.66 ± 0.26 mPa·s | viscosity ([2]; 313.15 K, x2 = 0.2035): 5.16 ± 0.35 mPa·s | viscosity ([2]; 313.15 K, x2 = 0.3059): 6.81 ± 0.45 mPa·s | viscosity ([2]; 313.15 K, x2 = 0.4053): 8.59 ± 0.55 mPa·s | viscosity ([2]; 313.15 K, x2 = 0.5073): 10.48 ± 0.67 mPa·s | viscosity ([2]; 313.15 K, x2 = 0.6013): 12.51 ± 0.79 mPa·s | viscosity ([2]; 313.15 K, x2 = 0.7046): 14.91 ± 0.93 mPa·s | viscosity ([2]; 313.15 K, x2 = 0.8067): 17.35 ± 1.1 mPa·s | viscosity ([2]; 313.15 K, x2 = 0.9059): 19.68 ± 1.2 mPa·s | viscosity ([2]; 323.15 K, x2 = 0): 1.95 ± 0.12 mPa·s | viscosity ([2]; 323.15 K, x2 = 0.1008): 2.66 ± 0.19 mPa·s | viscosity ([2]; 323.15 K, x2 = 0.2035): 3.89 ± 0.26 mPa·s | viscosity ([2]; 323.15 K, x2 = 0.3059): 5.07 ± 0.33 mPa·s | viscosity ([2]; 323.15 K, x2 = 0.4053): 6.51 ± 0.42 mPa·s | viscosity ([2]; 323.15 K, x2 = 0.5073): 7.99 ± 0.51 mPa·s | viscosity ([2]; 323.15 K, x2 = 0.6013): 9.51 ± 0.6 mPa·s | viscosity ([2]; 323.15 K, x2 = 0.7046): 11.06 ± 0.69 mPa·s | viscosity ([2]; 323.15 K, x2 = 0.8067): 12.99 ± 0.81 mPa·s | viscosity ([2]; 323.15 K, x2 = 0.9059): 14.9 ± 0.92 mPa·s
